Patent US20160272627A1, “POLYMORPHIC FORMS OF SUVOROXANT” (priority 2012, published 2016)

What was measured:
Format in all cases: physicochemical
[1] = Slurrying of Form A in solvents (Examples 26 to 38); settings: slurrying in few solvents (Examples 26 to 38), 27° C., 17-24 hours
Description: Suvorexant Form-A (500 mg) and methanol (20 ml) were introduced in 100 ml round bottom flask. The heterogeneous mixture so obtained was stirred at 27° C. for 17 hours and the solid substance was then filtered under vacuum. The product was dried at 60° C. in air tray drier to obtain Form B.
The process of example 26 was repeated wherein methanol was replaced by following solvents to obtain Form B: […]

[2] = Slurry of Form B in water at about 80° C., solid analysed with XRD; settings: water slurry at about 80° C. for about 1 hour, filtered at 80° C.
Description: (§1) All PXRD data reported herein are obtained using a Bruker AXS D8 Advance Powder X-ray Diffractometer or a PANalytical X-ray Diffractometer, using copper Kα radiation wavelength 1.5418 Å.
Suvorexant Form B (500 mg) and water (10 ml) were introduced in round bottom flask. The heterogeneous mixture so obtained was slurried with stirring at about 80° C. for about 1 hour and the solid substance was then filtered under vacuum at 80° C. The filtered solid was analyzed after 1 hour and 4 hours. The solid obtained after 1 hour and 4 hours were Form B up on analysis with XRD.

[3] = Slurry of Form B in water at about room temperature, solid analysed with XRD
Description: as §1
Suvorexant Form B (500 mg) and water (10 ml) were introduced in round bottom flask. The heterogeneous mixture so obtained was slurried with stirring at about room temperature for about 1 hour. The heterogeneous mixture was divided in to two parts. The first part was filtered under vacuum. The filtered solid was analyzed after 2 hour and 4 hours. The solid obtained after 2 hour and 4 hours were Form B up on analysis with XRD. The second part was stirred over night at room temperature and then filtered under vacuum. The solid obtained from second part was Form B up on analysis with XRD.

Q: With `Cc1ccc(-n2nccn2)c(C(=O)N2CCN(c3nc4cc(Cl)ccc4o3)CC[C@H]2C)c1` [Form A, 5-chloro-2-{(5R)-5-methyl-4-[5-methyl-2-(2H-1,2,3-triazol-2-yl)benzoyl]-1,4-diazepan-1 yl}-1,3-benzoxazole] as the compound, how does the “polymorphic form conversion up on slurrying” value [1] read?
A: converted in to Form B

Q: Which results are given for `Cc1ccc(-n2nccn2)c(C(=O)N2CCN(c3nc4cc(Cl)ccc4o3)CC[C@H]2C)c1` [Suvorexant Form B, 5-chloro-2-{(5R)-5-methyl-4-[5-methyl-2-(2H-1,2,3-triazol-2-yl)benzoyl]-1,4-diazepan-1 yl}-1,3-benzoxazole]?
A: polymorphic form of the solid up on analysis with XRD ([2]; filtered solid analyzed after 1 hour): Form B; polymorphic form of the solid up on analysis with XRD ([2]; filtered solid analyzed after 4 hours): Form B; polymorphic form of the solid up on analysis with XRD ([3]; water slurry at about room temperature for about 1 hour, first part filtered, filtered solid analyzed after 2 hour): Form B; polymorphic form of the solid up on analysis with XRD ([3]; water slurry at about room temperature for about 1 hour, first part filtered, filtered solid analyzed after 4 hours): Form B; polymorphic form of the solid up on analysis with XRD ([3]; water slurry, second part stirred over night at room temperature, then filtered): Form B
